Source: BindingDB's records for doi:10.1021/bi0500628 (Merck Research Laboratories, 2005)

Experiments:
Insulin receptor = Insulin receptor (Homo sapiens, UniProt P06213); assay: Homogeneous Time-Resolved Fluorescence (HTRF) Assay; conditions: pH 7.4; 22 °C
Text: (§1) The assay uses purified enzyme interacting with biotinylated peptide substrate.HTRF is based on the proximity of europium cryptate (donor fluorophore)-labeled antiphosphotyrosine and streptavidin labeled with APC (allophycocyanin), which have been brought together by a binding reaction. When the two entities come into close proximity and upon excitation, energy transfer occurs and APC re-emits at 665 nm. Relative fluorescence units were read on a Discovery plate reader (Packard). The IC50 values for inhibitors were determined by a four-parameter sigmoidal curve fit.

[1] = target: Insulin-like growth factor 1 receptor (Homo sapiens, UniProt P08069); assay: as above; conditions: pH 7.4; 22 °C
Chain of Insulin-like growth factor 1 receptor (P08069 31-736 limits assumed): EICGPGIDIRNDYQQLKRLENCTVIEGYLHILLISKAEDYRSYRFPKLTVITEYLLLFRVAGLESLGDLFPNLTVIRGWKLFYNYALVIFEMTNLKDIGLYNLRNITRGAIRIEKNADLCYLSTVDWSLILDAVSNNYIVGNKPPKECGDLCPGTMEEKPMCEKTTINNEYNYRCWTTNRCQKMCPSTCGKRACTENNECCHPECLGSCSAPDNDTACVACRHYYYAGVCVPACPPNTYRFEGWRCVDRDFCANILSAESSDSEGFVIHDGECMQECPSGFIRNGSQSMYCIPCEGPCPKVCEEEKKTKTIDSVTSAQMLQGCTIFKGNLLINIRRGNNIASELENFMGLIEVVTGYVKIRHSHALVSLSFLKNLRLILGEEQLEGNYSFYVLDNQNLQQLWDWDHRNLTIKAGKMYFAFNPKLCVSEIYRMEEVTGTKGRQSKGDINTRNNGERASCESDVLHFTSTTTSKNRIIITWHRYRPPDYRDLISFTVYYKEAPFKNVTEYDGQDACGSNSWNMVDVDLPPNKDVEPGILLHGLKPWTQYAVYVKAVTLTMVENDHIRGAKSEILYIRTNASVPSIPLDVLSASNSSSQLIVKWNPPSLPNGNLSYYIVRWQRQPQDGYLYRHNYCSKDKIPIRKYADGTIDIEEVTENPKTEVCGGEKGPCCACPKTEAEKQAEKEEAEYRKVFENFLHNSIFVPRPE
Chain of Insulin-like growth factor 1 receptor (P08069 741-1367 limits assumed): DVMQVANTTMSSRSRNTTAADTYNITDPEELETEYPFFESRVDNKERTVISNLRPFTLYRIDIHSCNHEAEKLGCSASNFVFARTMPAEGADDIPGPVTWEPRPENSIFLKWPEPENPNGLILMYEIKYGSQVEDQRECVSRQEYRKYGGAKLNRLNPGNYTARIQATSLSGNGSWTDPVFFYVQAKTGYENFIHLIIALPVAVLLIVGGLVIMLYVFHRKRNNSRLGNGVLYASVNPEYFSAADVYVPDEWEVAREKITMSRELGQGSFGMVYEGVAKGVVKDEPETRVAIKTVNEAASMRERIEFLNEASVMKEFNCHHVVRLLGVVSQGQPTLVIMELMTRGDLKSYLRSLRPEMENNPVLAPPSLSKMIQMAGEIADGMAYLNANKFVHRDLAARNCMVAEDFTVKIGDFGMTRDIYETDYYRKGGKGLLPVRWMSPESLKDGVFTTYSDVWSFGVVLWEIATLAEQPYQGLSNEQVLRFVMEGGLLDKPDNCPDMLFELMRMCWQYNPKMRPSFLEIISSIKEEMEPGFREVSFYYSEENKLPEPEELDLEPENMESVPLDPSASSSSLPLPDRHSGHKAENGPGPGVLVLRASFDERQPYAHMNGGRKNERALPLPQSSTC
Text: as §1

Chain of Insulin receptor (P06213 28-758 limits assumed): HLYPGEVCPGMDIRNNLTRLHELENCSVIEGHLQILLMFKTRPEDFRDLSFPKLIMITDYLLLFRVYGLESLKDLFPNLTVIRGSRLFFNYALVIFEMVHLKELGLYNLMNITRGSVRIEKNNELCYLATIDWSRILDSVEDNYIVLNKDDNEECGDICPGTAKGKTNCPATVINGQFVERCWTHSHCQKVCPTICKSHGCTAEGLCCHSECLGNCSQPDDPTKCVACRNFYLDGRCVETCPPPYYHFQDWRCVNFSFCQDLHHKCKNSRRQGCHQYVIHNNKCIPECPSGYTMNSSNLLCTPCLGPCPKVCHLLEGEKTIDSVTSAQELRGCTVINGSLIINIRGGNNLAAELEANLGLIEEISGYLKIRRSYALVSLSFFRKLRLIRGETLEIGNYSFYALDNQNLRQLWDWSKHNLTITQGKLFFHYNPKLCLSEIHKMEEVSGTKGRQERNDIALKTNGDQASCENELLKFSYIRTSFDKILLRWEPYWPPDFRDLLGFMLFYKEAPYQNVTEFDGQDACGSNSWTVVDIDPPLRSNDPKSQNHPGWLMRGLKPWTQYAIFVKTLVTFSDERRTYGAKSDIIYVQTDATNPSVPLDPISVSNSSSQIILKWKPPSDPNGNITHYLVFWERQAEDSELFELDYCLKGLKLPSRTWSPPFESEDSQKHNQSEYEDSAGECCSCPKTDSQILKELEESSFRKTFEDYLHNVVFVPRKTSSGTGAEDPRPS
Chain of Insulin receptor (P06213 763-1382 limits assumed): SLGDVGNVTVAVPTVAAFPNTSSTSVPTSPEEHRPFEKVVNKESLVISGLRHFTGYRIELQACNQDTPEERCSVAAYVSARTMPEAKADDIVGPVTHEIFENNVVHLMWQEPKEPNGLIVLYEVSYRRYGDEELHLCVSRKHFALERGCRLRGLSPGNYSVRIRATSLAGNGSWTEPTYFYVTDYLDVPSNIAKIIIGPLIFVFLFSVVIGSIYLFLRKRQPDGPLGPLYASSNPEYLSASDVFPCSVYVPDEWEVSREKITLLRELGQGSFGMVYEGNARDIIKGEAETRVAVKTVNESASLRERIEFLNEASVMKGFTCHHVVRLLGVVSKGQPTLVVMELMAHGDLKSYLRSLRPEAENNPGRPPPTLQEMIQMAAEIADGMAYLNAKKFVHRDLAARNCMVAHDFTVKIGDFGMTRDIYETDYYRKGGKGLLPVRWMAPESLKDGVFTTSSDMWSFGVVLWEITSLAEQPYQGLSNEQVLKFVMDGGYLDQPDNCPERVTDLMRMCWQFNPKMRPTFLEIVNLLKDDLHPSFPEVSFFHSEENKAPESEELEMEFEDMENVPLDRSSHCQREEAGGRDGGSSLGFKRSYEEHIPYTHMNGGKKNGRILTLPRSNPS

For `CCOC(=O)c1[nH]c(C=O)c(C(=O)OCC)c1CC` [2,4-diethyl 3-ethyl-5-formyl-1H-pyrrole-2,4-dicarboxylate], the IC50 (Insulin receptor) was 5.4 µM and the IC50 [1] was 1.1 µM.

In the case of `CCOC(=O)c1[nH]c(CO)c(C(=O)OCC)c1C` [2,4-diethyl 5-(hydroxymethyl)-3-methyl-1H-pyrrole-2,4-dicarboxylate], the IC50 (Insulin receptor) is reported as > 100 µM and the IC50 [1] is reported as > 100 µM.

In the case of `CCOC(=O)c1[nH]c(C=O)c(C(=O)OCC)c1C` [2,4-diethyl 5-formyl-3-methyl-1H-pyrrole-2,4-dicarboxylate], the IC50 (Insulin receptor) is reported as 12 µM and the IC50 [1] is reported as 2.7 µM.

`CCOC(=O)c1c(CC)c(C(=O)OC(C)(C)C)n(C)c1C=O` [2-tert-Butyl 4-Ethyl 3-Ethyl-5-formyl-1-methyl-1H-pyrrole-2,4-dicarboxylate] showed an IC50 (Insulin receptor) of 12 µM and an IC50 [1] of 4.3 µM.

With `CCOC(=O)c1c(C=O)[nH]c(C(=O)OC(C)(C)C)c1CC` [2-tert-Butyl 4-Ethyl 3-Ethyl-5-formyl-1H-pyrrole-2,4-dicarboxylate] the IC50 (Insulin receptor) was 2 µM and the IC50 [1] was 0.49 µM.

For `CCN(CC)C(=O)c1[nH]c(C=O)c(C(=O)N(CC)CC)c1C` [N,N,N,N-Tetraethyl-5-formyl-3-methyl-1H-pyrrole-2,4-dicarboxamide], the IC50 (Insulin receptor) was > 100 µM and the IC50 [1] was > 100 µM.

`CCOC(=O)c1c(C=O)[nH]c(C(=O)NC(C)(C)C)c1CC` [ethyl 5-(tert-butylcarbamoyl)-4-ethyl-2-formyl-1H-pyrrole-3-carboxylate] gave an IC50 (Insulin receptor) of 17 µM and an IC50 [1] of 2.6 µM.

For `COC(=O)[C@]1(O)C[C@@H]2O[C@@]1(C)n1c3ccccc3c3c4c(c5c6ccccc6n2c5c31)C(=O)NC4` [methyl (15R,16S,18S)-16-hydroxy-15-methyl-3-oxo-28-oxa-4,14,19-triazaoctacyclo[12.11.2.1^{15,18}.0^{2,6}.0^{7,27}.0^{8,13}.0^{19,26}.0^{20,25}]octacosa-1(26),2(6),7(27),8(13),9,11,20(25),21,23-nonaene-16-carboxylate], the IC50 (Insulin receptor) was 0.21 µM and the IC50 [1] was 0.47 µM.
